Test results: patent publication US20160015638A1, “STABLE GLUCOKINASE ACTIVATOR COMPOSITIONS” (vTv Therapeutics LLC, priority 2013, published 2016)

Tests used:
[1] = test system: insulin secretion by the pancreas; settings: in the presence of glucose; cited from earlier work
[2] = Biopharmaceutics Classification System (BCS) classification; type: physicochemical
Description: As a result, Class IV drugs have poor bioavailability and are usually not well-absorbed while having high variability. Preparing a stable, bioavailable composition containing {2-[3-cyclohexyl-3-(trans-4-propoxy-cyclohexyl)-ureido]-thiazol-5-ylsulfanyl}-acetic acid or a pharmaceutically acceptable salt thereof is, however, not straight forward.

[3] = X-ray powder diffraction (XRPD) crystal structure before and after processing; type: physicochemical
Description: The crystal structure of {2-[3-cyclohexyl-3-(trans-4-propoxy-cyclohexyl)-ureido]-thiazol-5-ylsulfanyl}-acetic acid was not changed during nanosizing.
The crystal structure of {2-[3-cyclohexyl-3-(trans-4-propoxy-cyclohexyl)-ureido]-thiazol-5-ylsulfanyl}-acetic acid was not changed during spray drying.

Biopharmaceutics Classification System (BCS) class [2]: Class IV | solubility ([2]; BCS classification): low solubility | crystal structure (XRPD) ([3]; during nanosizing by microfluidization, lyophilized suspension): not changed | crystal structure (XRPD) ([3]; during spray drying): not changed
SMILES: CCCO[C@H]1CC[C@H](N(C(=O)Nc2ncc(SCC(=O)O)s2)C2CCCCC2)CC1 [{2-[3-cyclohexyl-3-(trans-4-propoxy-cyclohexyl)-ureido]-thiazol-5-ylsulfanyl}-acetic acid]
insulin secretion by the pancreas [1]: does not increase insulin secretion
